Data on 15 compounds can be found in PubChem BioAssay (NCI).

Some test systems named below: T-47D breast; MOLT-4 leukemia; SNB-75 CNS; UACC-62 melanoma; RPMI-8226 leukemia; SK-MEL-2 melanoma; UO-31 renal; DU-145 prostate; NCI-H522 lung; BT-549 breast.
Holding throughout (assay): NCI tumour cell line growth inhibition, 48 h

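Method: 48-hour compound exposure of cells in 96-well plates, five concentrations, linear interpolation of endpoints. At the TGI there is no net growth.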

On to `COc1ccc(OC)c(NC2=NCCO2)c1`, for which the TGI in the experiment on T-47D breast, with MOLT-4 leukemia, in the experiment with SNB-75 CNS, in the experiment with UACC-62 melanoma, with RPMI-8226 leukemia and in the experiment with SK-MEL-2 melanoma was greater than 100 µM in each case. Besides, the TGI in the experiment with UO-31 renal, in the experiment with DU-145 prostate and with NCI-H522 lung was greater than 100 µM throughout.
As to `O=C(CNc1nccs1)Nn1cnc2ccc(S(=O)(=O)Nc3nccs3)cc2c1=O`, the TGI in the experiment with MOLT-4 leukemia, in the experiment with SNB-75 CNS, in the experiment with UACC-62 melanoma, with RPMI-8226 leukemia, with SK-MEL-2 melanoma and with UO-31 renal was greater than 100 µM throughout. The TGI in the experiment with BT-549 breast, in the experiment on DU-145 prostate and with NCI-H522 lung was greater than 100 µM in each case.
Regarding `Cc1ccc2n(c1)cc(-c1ccc(/C=N/NC(=N)N/N=C/c3ccc(-c4cn5cc(C)ccc5[n+]4C)cc3)cc1)[n+]2C`, the TGI is greater than 100 µM in the experiment on T-47D breast; greater than 100 µM in the experiment on MOLT-4 leukemia; 35.2 µM with SNB-75 CNS; greater than 100 µM in the experiment with RPMI-8226 leukemia; 44.1 µM in the experiment on UO-31 renal; greater than 100 µM in the experiment with NCI-H522 lung.
On to `CCOC(=O)CCC(NC(=O)c1ccc(Nc2nc3cc(C(F)(F)F)ccc3nc2C(=O)OCC)cc1)C(=O)OCC` (stereo not drawn), for which the TGI is 29.7 µM with T-47D breast; greater than 100 µM in the experiment with MOLT-4 leukemia; 41.7 µM in the experiment on UACC-62 melanoma; greater than 100 µM in the experiment on RPMI-8226 leukemia; 28.8 µM with SK-MEL-2 melanoma; 24.6 µM with UO-31 renal. Moreover, the TGI in the experiment with BT-549 breast is 29.8 µM; with DU-145 prostate it was greater than 100 µM; in the experiment on NCI-H522 lung it was 42.2 µM.
As for `C=CCOC(=O)c1c(C)n([O-])c2cc(Cl)c(Cl)cc2[n+]1=O`, the TGI in the experiment with T-47D breast was found to be 49.3 µM; in the experiment with MOLT-4 leukemia it was 54.4 µM; in the experiment with UACC-62 melanoma, 41.3 µM; in the experiment on RPMI-8226 leukemia it was 33.9 µM; in the experiment on SK-MEL-2 melanoma, 39.4 µM; in the experiment on UO-31 renal, 59.8 µM. The TGI was 75.3 µM with BT-549 breast, greater than 100 µM with DU-145 prostate and 28.1 µM with NCI-H522 lung.
In the case of `CCCc1n[nH]c(=O)n1N1C(=O)C=CC1=O`, the TGI in the experiment on T-47D breast, in the experiment on MOLT-4 leukemia, in the experiment with UACC-62 melanoma, in the experiment with SK-MEL-2 melanoma, in the experiment on BT-549 breast and with DU-145 prostate was greater than 100 µM in each case. In the experiment with NCI-H522 lung, the TGI is greater than 100 µM.
Turning to `CCOC(=O)C1(C#N)C2(C#N)C(N)=NC(ON=C(C)C)(ON=C(C)C)C12C#N` (stereo not drawn), the TGI in the experiment on T-47D breast, with MOLT-4 leukemia, in the experiment on UACC-62 melanoma, with RPMI-8226 leukemia, in the experiment on SK-MEL-2 melanoma and in the experiment on UO-31 renal was greater than 100 µM each time. Also, the TGI in the experiment on BT-549 breast, in the experiment on DU-145 prostate and in the experiment on NCI-H522 lung was greater than 100 µM each time.
In the case of `C/C(=N\NC(=O)CC#N)C(CN1CCCCC1)C(c1ccccc1)c1c(O)c2ccccc2oc1=O` (stereo not drawn), the TGI was 69.4 µM with MOLT-4 leukemia; greater than 100 µM in the experiment with SNB-75 CNS; greater than 100 µM in the experiment with UACC-62 melanoma; greater than 100 µM with RPMI-8226 leukemia; greater than 100 µM with SK-MEL-2 melanoma; greater than 100 µM in the experiment with UO-31 renal. Further, the TGI with BT-549 breast, in the experiment on DU-145 prostate and with NCI-H522 lung was greater than 100 µM each time.
`CC(C)(C)c1ccc(O)c(C(c2ccc([N+](=O)[O-])cc2)c2cc(C(C)(C)C)ccc2O)c1`: the TGI in the experiment on T-47D breast came out at 8.72 µM; with MOLT-4 leukemia, 5.14 µM; in the experiment on SNB-75 CNS, 3.9 µM; in the experiment on UACC-62 melanoma, 3.2 µM; in the experiment on RPMI-8226 leukemia, 4.98 µM; in the experiment with SK-MEL-2 melanoma it was 3.36 µM. Besides, the TGI with UO-31 renal came out at 3.52 µM; in the experiment on DU-145 prostate it was 6.14 µM; in the experiment on NCI-H522 lung it was 4.32 µM.
`N#C/C(=C/n1c(=S)[nH]c2ccccc21)C(N)=O`: the TGI with T-47D breast, with MOLT-4 leukemia, in the experiment with SNB-75 CNS, with UACC-62 melanoma, with RPMI-8226 leukemia and with SK-MEL-2 melanoma was greater than 100 µM throughout. Further, the TGI with UO-31 renal, in the experiment with DU-145 prostate and with NCI-H522 lung was greater than 100 µM each time.
Take `Cc1ccc(S(=O)(=O)NC(=O)NCCc2ccc(O)c(O)c2)cc1`: the TGI in the experiment on MOLT-4 leukemia, in the experiment with SNB-75 CNS, in the experiment with UACC-62 melanoma, in the experiment on RPMI-8226 leukemia, in the experiment with SK-MEL-2 melanoma and in the experiment with UO-31 renal was greater than 100 µM each time. Moreover, the TGI in the experiment on DU-145 prostate and in the experiment with NCI-H522 lung was greater than 100 µM each time.
As to `c1ccc2[nH]c3c(N=NC4=NCCN4)c4ccccc4c-3nc2c1`, the TGI in the experiment on T-47D breast was greater than 100 µM; in the experiment with MOLT-4 leukemia, greater than 100 µM; in the experiment on SNB-75 CNS it was 16.4 µM; with UACC-62 melanoma, 21.1 µM; in the experiment with BT-549 breast it was 41.9 µM; in the experiment on DU-145 prostate it was greater than 100 µM. Further, the TGI in the experiment on NCI-H522 lung came out at 17.3 µM.
Turning to `COc1ccc(C2S/C(=C\c3cccc(OC)c3)C(=O)N2NC(=O)Cc2ccccc2)cc1` (stereo not drawn), the TGI in the experiment on MOLT-4 leukemia, in the experiment on SNB-75 CNS, with UACC-62 melanoma, in the experiment on RPMI-8226 leukemia, with SK-MEL-2 melanoma and with UO-31 renal was greater than 100 µM each time. Besides, the TGI with NCI-H522 lung was greater than 100 µM.
`O=S(c1ccccc1)C1CC2CC3(CCC21O)OCCO3` (stereo not drawn): the TGI in the experiment on T-47D breast, in the experiment on MOLT-4 leukemia, with SNB-75 CNS, in the experiment on UACC-62 melanoma, with RPMI-8226 leukemia and with SK-MEL-2 melanoma was greater than 100 µM each time. Also, the TGI with UO-31 renal, in the experiment with DU-145 prostate and in the experiment on NCI-H522 lung was greater than 100 µM in each case.
Consider `Brc1c2nc3ccccc3nc2n2ccc3ccccc3c12`, for which the TGI in the experiment with MOLT-4 leukemia, in the experiment on SNB-75 CNS, with UACC-62 melanoma, in the experiment with RPMI-8226 leukemia, in the experiment with SK-MEL-2 melanoma and in the experiment on UO-31 renal was greater than 100 µM each time. This compound had a TGI in the experiment with NCI-H522 lung greater than 100 µM.
